Blank lines part the entries; values can stand above or below the compound they belong to.
How the values were obtained:
in vivo = details: female, Balb/c, mouse, plasma, po
Btk = Btk (Homo sapiens (Human), UniProt Q06187); experiment: Btk acellular kinase assay (TR-FRET); details: Btk IC50 relative to compound 4
DHL-6 cells = experiment: DHL-6 cell growth (Alamar Blue assay); type: cell-based; details: 3E4 DHL-6 cells/well in complete media, 0.1% DMSO

Btk, sequence (Q06187 whole entry): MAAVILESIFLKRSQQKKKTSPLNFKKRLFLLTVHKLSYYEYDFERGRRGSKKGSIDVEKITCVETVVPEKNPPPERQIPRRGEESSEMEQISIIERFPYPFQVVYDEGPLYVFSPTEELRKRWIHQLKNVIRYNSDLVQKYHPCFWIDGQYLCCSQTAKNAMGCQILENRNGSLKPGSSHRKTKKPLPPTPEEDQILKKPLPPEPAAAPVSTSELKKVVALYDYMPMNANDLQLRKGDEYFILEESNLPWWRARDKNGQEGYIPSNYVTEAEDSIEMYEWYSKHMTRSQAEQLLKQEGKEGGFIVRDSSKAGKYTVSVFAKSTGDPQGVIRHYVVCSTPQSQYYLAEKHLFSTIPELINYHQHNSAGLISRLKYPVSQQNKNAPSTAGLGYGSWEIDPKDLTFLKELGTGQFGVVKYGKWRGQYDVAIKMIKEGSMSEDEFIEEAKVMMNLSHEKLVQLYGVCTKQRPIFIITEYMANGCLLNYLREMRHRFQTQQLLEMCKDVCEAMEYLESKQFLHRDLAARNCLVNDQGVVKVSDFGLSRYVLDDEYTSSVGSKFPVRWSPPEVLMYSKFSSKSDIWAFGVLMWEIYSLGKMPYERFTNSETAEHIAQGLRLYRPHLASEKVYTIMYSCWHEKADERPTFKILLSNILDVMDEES

Tmax (in vivo): 2 h
Structure (SMILES): C=CC(=O)N1CCCC(n2nc(-c3ccc(Oc4ccccc4)cc3)c3c(N)ncnc32)C1 (stereo not drawn) [Compound 4, 1-(3-(4-amino-3-(4-phenoxyphenyl)-1H-pyrazolo[3,4-d]pyrimidin-1-yl)piperidin-1-yl)prop-2-en-1-one]

fold less potent than 4 (Btk): 28 fold
Structure (SMILES): C/C=C/C(=O)N1CCCC(n2nc(-c3ccc(Oc4ccccc4)cc3)c3c(N)ncnc32)C1 (stereo not drawn) [Compound 5, (E)-1-(3-(4-amino-3-(4-phenoxyphenyl)-1H-pyrazolo[3,4-d]pyrimidin-1-yl)piperidin-1-yl)but-2-en-1-one]

Structure (SMILES): CN(C)C/C=C/C(=O)N1CCCC(n2nc(-c3ccc(Oc4ccccc4)cc3)c3c(N)ncnc32)C1 (stereo not drawn) [Compound 15, (E)-1-(3-(4-amino-3-(4-phenoxyphenyl)-1H-pyrazolo[3,4-d]pyrimidin-1-yl)piperidin-1-yl)-4-(dimethylamino)but-2-en-1-one]
growth of DHL-6 cells (DHL-6 cells): inhibit growth
